Assay results from the CheMixHub ionic liquid set.

Assay: xn = mol fraction of the nth substance listed

CCCC[P+](CCCC)(CCCC)CCCC.F[B-](F)(F)F + CC#N
viscosity [mPa·s], 100 kPa
Conditions | 293.15 K | 298.15 K | 303.15 K | 308.15 K | 313.15 K | 318.15 K
x1 = 0.0005293 | – | 0.347 | – | – | – | –
x1 = 0.0007957 | – | 0.35 | – | – | – | –
x1 = 0.001066 | – | 0.353 | – | – | – | –
x1 = 0.001332 | – | 0.356 | – | – | – | –
x1 = 0.001602 | – | 0.36 | – | – | – | –
x1 = 0.001872 | – | 0.363 | – | – | – | –
x1 = 0.004186 | 0.373 | 0.356 | 0.341 | 0.326 | 0.313 | 0.3
x1 = 0.0082 | 0.395 | 0.376 | 0.359 | 0.343 | 0.329 | 0.315
x1 = 0.01203 | 0.415 | 0.395 | 0.376 | 0.359 | 0.344 | 0.329
x1 = 0.01623 | 0.439 | 0.417 | 0.398 | 0.378 | 0.362 | 0.346
x1 = 0.01997 | 0.462 | 0.439 | 0.417 | 0.397 | 0.379 | 0.362
x1 = 0.02402 | 0.489 | 0.463 | 0.441 | 0.417 | 0.399 | 0.38
x1 = 0.02784 | 0.514 | 0.485 | 0.459 | 0.438 | 0.417 | 0.398
x1 = 0.03177 | 0.539 | 0.512 | 0.484 | 0.459 | 0.437 | 0.416
x1 = 0.03555 | 0.565 | 0.533 | 0.505 | 0.479 | 0.456 | 0.434
x1 = 0.03928 | 0.597 | 0.565 | 0.533 | 0.505 | 0.48 | 0.456

CCCCCCCCCCCCCCCC[n+]1ccccc1.[Br-] + O
100 kPa, x1 = 9.009e-05
Conditions | electrical conductivity [S/m]
298.15 K | 0.021
303.15 K | 0.021
308.15 K | 0.022
313.15 K | 0.024

CCCCCCCCn1cc[n+](C)c1.[Cl-] + CCCO
101 kPa
Conditions | viscosity [mPa·s]
298.15 K, x2 = 0 | 21000
298.15 K, x2 = 0.7248 | 19.25
298.15 K, x2 = 0.9024 | 4.6
313.15 K, x2 = 0.407 | 160
328.15 K, x2 = 0 | 1091
328.15 K, x2 = 0.1071 | 560
328.15 K, x2 = 0.2407 | 231
328.15 K, x2 = 0.3036 | 144
328.15 K, x2 = 0.6209 | 17.73
328.15 K, x2 = 0.7248 | 8.25
328.15 K, x2 = 0.94 | 1.679
328.15 K, x2 = 0.9729 | 1.372

O=C1O[C@H]([C@@H](O)CO)C(O)=C1O + O + CCCC[N+](CCCC)(CCCC)CCCC.O=S(=O)([O-])O
viscosity [mPa·s], 101 kPa
Conditions | x1 = 0.0003639, x3 = 0 | x1 = 0.0006573, x3 = 0 | x1 = 0.0009524, x3 = 0 | x1 = 0.001251, x3 = 0 | x1 = 0.001553, x3 = 0 | x1 = 0.001856, x3 = 0
298.15 K | 0.899 | 0.904 | 0.91 | 0.916 | 0.922 | 0.927
308.15 K | 0.724 | 0.728 | 0.732 | 0.738 | 0.743 | 0.748
318.15 K | 0.6 | 0.604 | 0.608 | 0.612 | 0.616 | 0.621

CCC(=O)[O-].CCOCCn1cc[n+](C)c1 + O
100 kPa
Conditions | electrical conductivity [S/m] | viscosity [mPa·s]
288.15 K, x1 = 0.8211 | 0.244 | 56.95
288.15 K, x1 = 0.85 | 0.209 | 62.86
288.15 K, x1 = 0.8812 | 0.178 | 69.98
288.15 K, x1 = 0.9123 | 0.148 | 77.3
288.15 K, x1 = 0.9441 | 0.118 | 85.4
288.15 K, x1 = 1 | 0.067 | 96.2
293.15 K, x1 = 0.8211 | 0.285 | 43.77
293.15 K, x1 = 0.85 | 0.255 | 48.37
293.15 K, x1 = 0.8812 | 0.228 | 53.31
293.15 K, x1 = 0.9123 | 0.202 | 58.97
293.15 K, x1 = 0.9441 | 0.177 | 64.74
293.15 K, x1 = 1 | 0.132 | 72.77
298.15 K, x1 = 0.8211 | 0.332 | 34.4
298.15 K, x1 = 0.85 | 0.305 | 37.68
298.15 K, x1 = 0.8812 | 0.28 | 41.51
298.15 K, x1 = 0.9123 | 0.258 | 45.4
298.15 K, x1 = 0.9441 | 0.236 | 49.8
298.15 K, x1 = 1 | 0.196 | 55.65
303.15 K, x1 = 0.8211 | 0.425 | 27.21
303.15 K, x1 = 0.85 | 0.399 | 29.76
303.15 K, x1 = 0.8812 | 0.371 | 32.63
303.15 K, x1 = 0.9123 | 0.349 | 35.7
303.15 K, x1 = 0.9441 | 0.326 | 39.01
303.15 K, x1 = 1 | 0.285 | 43.51
308.15 K, x1 = 0.8211 | 0.539 | 22.04
308.15 K, x1 = 0.85 | 0.507 | 23.97
308.15 K, x1 = 0.8812 | 0.478 | 26.44
308.15 K, x1 = 0.9123 | 0.451 | 28.78
308.15 K, x1 = 0.9441 | 0.425 | 30.96
308.15 K, x1 = 1 | 0.378 | 34.6
313.15 K, x1 = 0.8211 | 0.647 | 17.65
313.15 K, x1 = 0.85 | 0.617 | 19.48
313.15 K, x1 = 0.8812 | 0.588 | 21.34
313.15 K, x1 = 0.9123 | 0.561 | 22.96
313.15 K, x1 = 0.9441 | 0.534 | 24.58
313.15 K, x1 = 1 | 0.488 | 27.45
318.15 K, x1 = 0.8211 | 0.775 | 14.34
318.15 K, x1 = 0.85 | 0.747 | 15.58
318.15 K, x1 = 0.8812 | 0.718 | 17.15
318.15 K, x1 = 0.9123 | 0.691 | 18.49
318.15 K, x1 = 0.9441 | 0.664 | 19.86
318.15 K, x1 = 1 | 0.619 | 22.11

OCCN(CCO)CCO + CCOS(=O)(=O)[O-].CC[n+]1ccn(C)c1
100 kPa
Conditions | electrical conductivity [S/m] | viscosity [mPa·s]
293.15 K, x1 = 0.153 | – | 126.2
293.15 K, x1 = 0.617 | – | 159.3
293.15 K, x1 = 0.967 | – | 714
298.15 K, x1 = 0.787 | 0.0457 | 202.4
298.15 K, x1 = 0.929 | 0.0087 | 395
298.15 K, x1 = 0.967 | 0.00372 | 478
298.15 K, x2 = 0.003 | 0.000422 | –
298.15 K, x2 = 0.006 | 0.00076 | –
298.15 K, x2 = 0.019 | 0.00206 | –
303.15 K, x1 = 0.617 | – | 89
303.15 K, x1 = 0.866 | – | 203.4
303.15 K, x1 = 0.929 | – | 274.8
303.15 K, x1 = 0.967 | – | 328
303.15 K, x2 = 0.006 | – | 389
313.15 K, x1 = 0.153 | 0.66 | 50.4
313.15 K, x2 = 0.003 | 0.00117 | –
313.15 K, x2 = 0.006 | 0.00211 | –

O=P([O-])([O-])O.[Na+].[Na+] + CCCCCCCCCCCC[N+](C)(C)C.[Br-] + O
298.15 K, 101 kPa
Conditions | electrical conductivity [S/m]
x2 = 0, x1 = 0.0001802 | 0.1834
x2 = 0, x1 = 0.001799 | 1.203
x2 = 3.43e-06, x1 = 0.0001802 | 0.1849
x2 = 4.01e-06, x1 = 0.001799 | 1.201
x2 = 7.22e-06, x1 = 0.0001802 | 0.1863
x2 = 1.095e-05, x1 = 0.001799 | 1.202
x2 = 1.245e-05, x1 = 0.0001802 | 0.1888
x2 = 1.967e-05, x1 = 0.0001802 | 0.1919
x2 = 2.007e-05, x1 = 0.001799 | 1.204
x2 = 2.851e-05, x1 = 0.0001802 | 0.1958
x2 = 2.882e-05, x1 = 0.001799 | 1.205
x2 = 3.717e-05, x1 = 0.0001802 | 0.1997
x2 = 4.214e-05, x1 = 0.001799 | 1.207
x2 = 4.619e-05, x1 = 0.0001802 | 0.2038
x2 = 5.521e-05, x1 = 0.0001802 | 0.2079
x2 = 5.582e-05, x1 = 0.001799 | 1.209
x2 = 6.423e-05, x1 = 0.0001802 | 0.212
x2 = 6.895e-05, x1 = 0.001799 | 1.212
x2 = 7.307e-05, x1 = 0.0001801 | 0.2161
x2 = 8.173e-05, x1 = 0.0001801 | 0.2201
x2 = 8.209e-05, x1 = 0.001799 | 1.215
x2 = 9.056e-05, x1 = 0.0001801 | 0.224
x2 = 9.522e-05, x1 = 0.001799 | 1.218
x2 = 9.922e-05, x1 = 0.0001801 | 0.2279
x2 = 0.0001077, x1 = 0.0001801 | 0.2317
x2 = 0.0001087, x1 = 0.001799 | 1.221
x2 = 0.0001165, x1 = 0.0001801 | 0.2356
x2 = 0.0001218, x1 = 0.001799 | 1.224
x2 = 0.000125, x1 = 0.0001801 | 0.2393
x2 = 0.0001335, x1 = 0.0001801 | 0.243
x2 = 0.0001366, x1 = 0.001799 | 1.228
x2 = 0.0001441, x1 = 0.0001801 | 0.2473
x2 = 0.0001519, x1 = 0.001798 | 1.232
x2 = 0.0001524, x1 = 0.0001801 | 0.2509
x2 = 0.0001609, x1 = 0.0001801 | 0.2547
x2 = 0.0001667, x1 = 0.001798 | 1.236
x2 = 0.0001694, x1 = 0.0001801 | 0.2586
x2 = 0.0001777, x1 = 0.0001801 | 0.2624
x2 = 0.0001813, x1 = 0.001798 | 1.24
x2 = 0.0001858, x1 = 0.0001801 | 0.2662
x2 = 0.0001937, x1 = 0.0001801 | 0.2697
x2 = 0.0001963, x1 = 0.001798 | 1.243
x2 = 0.0002019, x1 = 0.0001801 | 0.2733
x2 = 0.0002103, x1 = 0.0001801 | 0.2774
x2 = 0.0002105, x1 = 0.001798 | 1.246
x2 = 0.0002184, x1 = 0.0001801 | 0.2809
x2 = 0.0002245, x1 = 0.001798 | 1.249
x2 = 0.000226, x1 = 0.0001801 | 0.2841
x2 = 0.0002339, x1 = 0.0001801 | 0.2867
x2 = 0.0002387, x1 = 0.001798 | 1.252
x2 = 0.0002421, x1 = 0.0001801 | 0.2888
x2 = 0.0002516, x1 = 0.0001801 | 0.2909
x2 = 0.0002524, x1 = 0.001798 | 1.254
x2 = 0.0002625, x1 = 0.0001801 | 0.2928
x2 = 0.0002663, x1 = 0.001798 | 1.257
x2 = 0.0002743, x1 = 0.0001801 | 0.2947
x2 = 0.0002801, x1 = 0.001798 | 1.259
x2 = 0.0002882, x1 = 0.0001801 | 0.2967
x2 = 0.0002936, x1 = 0.001798 | 1.262
x2 = 0.0003037, x1 = 0.0001801 | 0.2989
x2 = 0.0003071, x1 = 0.001798 | 1.265
x2 = 0.0003189, x1 = 0.0001801 | 0.3011
x2 = 0.0003202, x1 = 0.001798 | 1.268
x2 = 0.0003294, x1 = 0.001798 | 1.27
x2 = 0.0003301, x1 = 0.0001801 | 0.3025
